Publication PMC6858848 (Bioorganic & medicinal chemistry letters, 2019)
In brackets after ≈: the same amount, converted by molar mass.

Columns and labels:
hepG2 cells = details: CellTiter-Glo
40 targets, mostly GPCRs = details: 10 μM, NIMH PDSP
[1] = cited from earlier work
Kv7.2 channels = Kv7.2 channels (Homo sapiens, UniProt O43526); test: Kv7.2 thallium flux assay in HEK 293 cells; format: cell-based; details: for fold lower potency in Kv7.2 assay relative to DMP 543: compared with DMP 543
Acid stability = format: physicochemical; details: HPLC peak areas (254 nm) after heating at 60°C in 1:1 MeCN:0.2N aq. HCl for 24 h, 0.3 mM
hERG channels = hERG channels (Homo sapiens, UniProt Q12809); test: hERG thallium flux assay in HEK 293 cells; details: for hERG flux IC50: HEK 293 cells expressing hERG channels
Chain of hERG channels (Q12809 whole entry): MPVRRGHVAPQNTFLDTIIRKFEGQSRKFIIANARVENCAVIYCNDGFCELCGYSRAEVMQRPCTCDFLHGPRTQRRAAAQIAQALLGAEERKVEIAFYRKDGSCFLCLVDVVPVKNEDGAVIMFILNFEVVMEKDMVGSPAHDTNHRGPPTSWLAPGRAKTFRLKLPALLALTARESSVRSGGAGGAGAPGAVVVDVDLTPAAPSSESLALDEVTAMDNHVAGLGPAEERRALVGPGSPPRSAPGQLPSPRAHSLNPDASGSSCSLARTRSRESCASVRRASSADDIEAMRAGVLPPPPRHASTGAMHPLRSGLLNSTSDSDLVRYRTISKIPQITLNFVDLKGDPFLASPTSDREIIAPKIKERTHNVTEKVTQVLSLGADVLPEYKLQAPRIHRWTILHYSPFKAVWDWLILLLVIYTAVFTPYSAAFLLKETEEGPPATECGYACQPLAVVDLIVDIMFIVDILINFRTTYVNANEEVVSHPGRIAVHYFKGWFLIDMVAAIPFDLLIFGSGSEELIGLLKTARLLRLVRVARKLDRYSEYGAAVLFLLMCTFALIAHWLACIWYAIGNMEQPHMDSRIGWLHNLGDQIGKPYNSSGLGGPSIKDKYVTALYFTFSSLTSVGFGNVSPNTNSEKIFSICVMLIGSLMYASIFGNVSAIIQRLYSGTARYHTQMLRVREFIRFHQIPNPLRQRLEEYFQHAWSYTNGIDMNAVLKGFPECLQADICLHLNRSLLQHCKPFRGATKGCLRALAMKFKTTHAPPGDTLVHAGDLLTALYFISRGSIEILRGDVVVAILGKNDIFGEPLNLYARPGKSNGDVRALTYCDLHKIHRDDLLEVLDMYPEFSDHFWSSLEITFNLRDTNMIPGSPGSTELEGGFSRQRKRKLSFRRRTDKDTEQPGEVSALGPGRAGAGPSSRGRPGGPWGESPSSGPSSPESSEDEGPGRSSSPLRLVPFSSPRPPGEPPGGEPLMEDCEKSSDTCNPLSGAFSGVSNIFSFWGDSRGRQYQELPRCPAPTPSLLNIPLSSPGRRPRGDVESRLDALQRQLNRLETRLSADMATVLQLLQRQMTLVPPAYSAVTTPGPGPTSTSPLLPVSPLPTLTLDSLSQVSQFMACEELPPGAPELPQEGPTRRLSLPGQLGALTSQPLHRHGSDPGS

Alzheimer's patients = details: cited from earlier work
ACh release = details: read-out: ACh release EC50; cited from earlier work
[2] = system: mouse model of Parkinson's disease; details: cited from earlier work

Chain of Kv7.2 channels (O43526 whole entry): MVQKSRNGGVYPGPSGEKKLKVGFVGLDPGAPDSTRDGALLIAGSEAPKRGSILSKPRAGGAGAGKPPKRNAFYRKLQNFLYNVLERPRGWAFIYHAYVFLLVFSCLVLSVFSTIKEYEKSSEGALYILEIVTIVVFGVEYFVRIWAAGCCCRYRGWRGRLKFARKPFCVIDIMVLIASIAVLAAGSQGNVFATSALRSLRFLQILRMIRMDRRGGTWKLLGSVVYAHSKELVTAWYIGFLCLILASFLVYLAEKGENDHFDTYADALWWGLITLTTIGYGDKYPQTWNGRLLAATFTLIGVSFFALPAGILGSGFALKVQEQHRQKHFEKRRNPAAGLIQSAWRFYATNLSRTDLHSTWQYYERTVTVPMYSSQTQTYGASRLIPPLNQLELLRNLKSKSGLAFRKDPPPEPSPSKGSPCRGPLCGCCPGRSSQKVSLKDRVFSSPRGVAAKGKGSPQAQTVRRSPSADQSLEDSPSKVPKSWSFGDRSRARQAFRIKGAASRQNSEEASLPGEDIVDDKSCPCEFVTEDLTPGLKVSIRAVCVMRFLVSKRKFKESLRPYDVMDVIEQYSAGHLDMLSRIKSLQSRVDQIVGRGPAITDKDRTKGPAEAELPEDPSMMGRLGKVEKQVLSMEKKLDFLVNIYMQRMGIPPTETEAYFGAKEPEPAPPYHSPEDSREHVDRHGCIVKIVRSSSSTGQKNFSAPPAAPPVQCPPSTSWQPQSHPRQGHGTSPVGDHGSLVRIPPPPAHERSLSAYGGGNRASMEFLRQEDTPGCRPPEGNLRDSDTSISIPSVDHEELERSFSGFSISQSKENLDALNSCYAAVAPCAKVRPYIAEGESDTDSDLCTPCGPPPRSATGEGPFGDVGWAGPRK

SMILES: O=C1c2ccccc2C(Cc2ccnc(F)c2)(Cc2ccnc(F)c2)c2ccccc21 [DMP 543, 10,10-Bis[(2-Fluoro-4-Pyridinyl)Methyl]-9(10 H)-Anthracenone]
- cytotoxicity CC50, hepG2 cells (hepG2 cells): low cytotoxicity
- Off-target activities: number of targets (of 40) with >30% binding (40 targets, mostly GPCRs): 6
- aqueous solubility [1]: 6 µM (≈ 2.47 µg/mL)
- solubility kinetic (physchem): 22 µM (≈ 9.07 µg/mL)

SMILES: O=C1c2ccccc2C(Cc2ccnnc2)(Cc2c(F)cncc2F)c2ccccc21 [JDP-107 (18)]
- IC50 (Kv7.2 channels): 180 nM
- fold lower potency in Kv7.2 assay relative to DMP 543 (Kv7.2 channels): approximately 3 fold
- acid stability, percent remaining (Acid stability): no degradation
- Off-target activities: number of targets (of 40) with >30% binding (40 targets, mostly GPCRs): 5
- IC50 (hERG channels): > 32 µM
- hERG channel inhibition at 1 μM (hERG channels; 1 μM, thallium flux): no inhibition

SMILES: O=C1N(c2ccccc2)c2ccccc2C1(Cc1ccncc1)Cc1ccncc1 [Linopirdine, 3,3-Bis(4-Pyrindinylmethyl)-1-Phenylindolin-2-One]
- efficacy as cognitive enhancer in phase 3 trial (Alzheimer's patients): ineffective
- tolerability in phase 3 trial (Alzheimer's patients): well-tolerated

SMILES: O=C1c2ccccc2C(Cc2ccncc2)(Cc2ccncc2)c2ccccc21 [XE991, 10,10-Bis(4-Pyridinylmethyl)-9(10H)-Anthracenone]
- EC50 (ACh release): 400 nM
- neuroprotection [2]: acts as a neuroprotective agent
- IC50 (hERG channels): > 32 µM

SMILES: O=C1c2ccccc2C(Cc2ccnc(C(F)(F)F)c2)(Cc2ccnc(C(F)(F)F)c2)c2ccccc21 [compound 5]
- fold lower potency in Kv7.2 assay relative to DMP 543 (Kv7.2 channels): ~ 100 fold
- hERG flux IC50 (hERG channels; thallium flux): inactive

SMILES: O=C1c2ccccc2C(Cc2c(F)cncc2F)(Cc2c(F)cncc2F)c2ccccc21 [compound 6]
- acid stability, percent remaining (Acid stability): no degradation

SMILES: O=C1c2ccccc2C(Cc2ccnnc2)(Cc2ccnnc2)c2ccccc21 [compound 7]
- hERG flux IC50 (hERG channels; thallium flux): inactive

SMILES: Cc1cc(CC2(Cc3ccnc(C)c3)c3ccccc3C(=O)c3ccccc32)ccn1 [compound 8]
- hERG flux IC50 (hERG channels; thallium flux): inactive
